Laboratory results reported in patent US20100151050A1, “Method for evaluation of compound using RSK1” (priority 2005, published 2010).

Test system: p53-negative cells (TOV21G-shp53, A549-shp53, MCF7-shp53, U2OS-shp53, dominant negative U2OS-mtp53)
Experiment: Cell viability by MTT assay after RSK1 siRNA lipofection, p53-negative cells
Assay type: cell-based
Details: p53-negative cells with siRNA of RSK1, 96 hours
Protocol: First, as p53-positive cells, prepared were TOV21G, A549, MCF7 and U2OS cells. As p53-negative cells, prepared were TOV21G-shp53, A549-shp53, MCF7-shp53 and U2OS-shp53 by introducing shRNA of p53 into the above-mentioned four types of cells. Further, dominant negative U2OS-mtp53 cells were also prepared by introducing V157Fp53 into U2OS cells.
Next, siRNA of RSK1 was introduced into the above cells according to a lipofection method, and the cells were incubated in a 10% FCS-containing D-MEM medium (10% FCS-containing MacCoy's 5A medium for U2OS cells) in the presence or absence of cisplatin (CDDP) for 96 hours, and then their viability was measured through MTT assay. As the siRNA of RSK1, used was a mixture of the following three sequences.

`N.N.[Cl][Pt][Cl]` [cisplatin] was tested, and the “effect of cisplatin under RSK1 expression inhibition” value was “enhanced”.
